Source: ChEMBL document CHEMBL1156471, “Targeting host cell furin proprotein convertases as a therapeutic strategy against bacterial toxins and viral pathogens” (J Biol Chem, 2007)
pKi: −log10 of the molar value. Non-standard residues stand in square brackets, D forms with d. Residues, ends and D or L forms follow the SMILES beside them. Sar = CNCC(=O)O

target: Furin (Homo sapiens, UniProt P09958)
Sequence (P09958 whole entry): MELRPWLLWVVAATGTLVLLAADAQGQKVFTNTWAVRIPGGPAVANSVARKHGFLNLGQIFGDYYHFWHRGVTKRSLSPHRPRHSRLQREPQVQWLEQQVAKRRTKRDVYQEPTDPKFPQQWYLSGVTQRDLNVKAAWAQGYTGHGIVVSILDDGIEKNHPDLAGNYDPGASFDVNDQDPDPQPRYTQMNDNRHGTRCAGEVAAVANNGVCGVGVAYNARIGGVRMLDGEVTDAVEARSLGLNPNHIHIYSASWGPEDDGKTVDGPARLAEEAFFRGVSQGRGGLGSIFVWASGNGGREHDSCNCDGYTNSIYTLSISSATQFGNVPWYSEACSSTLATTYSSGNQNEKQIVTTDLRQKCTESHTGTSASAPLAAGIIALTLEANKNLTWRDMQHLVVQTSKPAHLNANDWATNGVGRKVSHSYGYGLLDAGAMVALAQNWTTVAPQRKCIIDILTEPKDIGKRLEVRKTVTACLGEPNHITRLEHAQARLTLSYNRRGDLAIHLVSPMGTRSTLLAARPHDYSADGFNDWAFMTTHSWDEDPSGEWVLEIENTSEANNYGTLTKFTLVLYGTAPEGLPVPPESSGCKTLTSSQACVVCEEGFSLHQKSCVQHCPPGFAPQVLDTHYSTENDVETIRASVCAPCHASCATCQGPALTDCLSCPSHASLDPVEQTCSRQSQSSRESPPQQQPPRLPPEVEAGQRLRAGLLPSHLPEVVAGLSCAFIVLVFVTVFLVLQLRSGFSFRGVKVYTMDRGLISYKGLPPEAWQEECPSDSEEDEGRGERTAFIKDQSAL

Structure (SMILES)	pKi
CSCC[C@H](NC(=O)[C@H](CCCNC(=N)N)NC(=O)[C@H](CCCCN)NC(=O)[C@H](CCCCN)NC(=O)[C@H](CCCNC(=N)N)NC(=O)[C@H](CCCNC(=N)N)NC(=O)[C@H](CCCNC(=N)N)NC(=O)[C@H](C)NC(=O)[C@H](CCCNC(=N)N)NC(=O)[C@@H]1CCCN1C(=O)[C@@H](N)[C@@H](C)O)C(=O)O	< 7.00
CSC[C@H](NC(=O)[C@H](CCCN=C(N)N)NC(=O)[C@H](CCCCN)NC(=O)[C@H](CCCCN)NC(=O)[C@H](CCCN=C(N)N)NC(=O)[C@H](CCCN=C(N)N)NC(=O)[C@H](CCCN=C(N)N)NC(=O)[C@H](C)NC(=O)[C@H](CCCN=C(N)N)NC(=O)[C@@H]1CCCN1C(=O)[C@@H](N)[C@@H](C)O)C(=O)O	7.19
C[C@@H](O)[C@H](N)C(=O)N1CCC[C@H]1C(=O)N[C@@H](CCCNC(=N)N)C(=O)NCCCCCC(=O)N[C@@H](CCCNC(=N)N)C(=O)N[C@@H](CCCNC(=N)N)C(=O)N[C@@H](CCCNC(=N)N)C(=O)N[C@@H](CCCCN)C(=O)N[C@@H](CCCCN)C(=O)N[C@@H](CCCNC(=N)N)C(=O)NCC(=O)O	< 7.00
C[C@@H](O)[C@H](N)C(=O)N1CCC[C@H]1C(=O)N[C@@H](CCCNC(=N)N)C(=O)N[C@H](CCC(=O)O)C(=O)N[C@@H](CCCNC(=N)N)C(=O)N[C@@H](CCCNC(=N)N)C(=O)N[C@@H](CCCNC(=N)N)C(=O)N[C@@H](CCCCN)C(=O)N[C@@H](CCCCN)C(=O)N[C@@H](CCCNC(=N)N)C(=O)NCC(=O)O	< 7.00
C[C@H](NC(=O)[C@H](CCCNC(=N)N)NC(=O)[C@@H]1CCCN1C(=O)[C@@H](N)[C@@H](C)O)C(=O)N[C@@H](CCCNC(=N)N)C(=O)N[C@@H](CCCNC(=N)N)C(=O)N[C@@H](CCCNC(=N)N)C(=O)N[C@@H](CCCCN)C(=O)N[C@@H](CCCCN)C(=O)N[C@@H](CCCNC(=N)N)C(=O)N[C@@H](CS)C(=O)O	< 7.00
C[C@@H](O)[C@H](N)C(=O)N1CCC[C@H]1C(=O)N[C@@H](CCCN=C(N)N)C(=O)N[C@@H](CCCNC(N)=O)C(=O)N[C@@H](CCCN=C(N)N)C(=O)N[C@@H](CCCN=C(N)N)C(=O)N[C@@H](CCCN=C(N)N)C(=O)N[C@@H](CCCCN)C(=O)N[C@@H](CCCCN)C(=O)N[C@@H](CCCN=C(N)N)C(=O)NCC(=O)O	< 7.00
C[C@@H](O)[C@H](N)C(=O)N1CCC[C@H]1C(=O)N[C@@H](CCCN=C(N)N)C(=O)NC1(C(=O)N[C@@H](CCCN=C(N)N)C(=O)N[C@@H](CCCN=C(N)N)C(=O)N[C@@H](CCCN=C(N)N)C(=O)N[C@@H](CCCCN)C(=O)N[C@@H](CCCCN)C(=O)N[C@@H](CCCN=C(N)N)C(=O)NCC(=O)O)CCCC1	< 7.00
C[C@@H](O)[C@H](N)C(=O)N1CCC[C@H]1C(=O)N[C@@H](CCCN=C(N)N)C(=O)N[C@@H](CCCCN)C(=O)N[C@@H](CCCN=C(N)N)C(=O)N[C@@H](CCCN=C(N)N)C(=O)N[C@@H](CCCN=C(N)N)C(=O)N[C@@H](CCCCN)C(=O)N[C@@H](CCCCN)C(=O)N[C@@H](CCCN=C(N)N)C(=O)NCC(=O)O	< 7.00
C[C@@H](O)[C@H](N)C(=O)N1CCC[C@H]1C(=O)N[C@@H](CCCNC(=N)N)C(=O)N[C@H](CCCCN)C(=O)N[C@@H](CCCNC(=N)N)C(=O)N[C@@H](CCCNC(=N)N)C(=O)N[C@@H](CCCNC(=N)N)C(=O)N[C@@H](CCCCN)C(=O)N[C@@H](CCCCN)C(=O)N[C@@H](CCCNC(=N)N)C(=O)NCC(=O)O	< 7.00
C[C@@H](O)[C@H](N)C(=O)N1CCC[C@H]1C(=O)N[C@@H](CCCNC(=N)N)C(=O)NCCC(=O)N[C@@H](CCCNC(=N)N)C(=O)N[C@@H](CCCNC(=N)N)C(=O)N[C@@H](CCCNC(=N)N)C(=O)N[C@@H](CCCCN)C(=O)N[C@@H](CCCCN)C(=O)N[C@@H](CCCNC(=N)N)C(=O)NCC(=O)O	< 7.00
C[C@H](N)C(=O)N[C@@H](C)C(=O)N[C@@H](C)C(=O)N[C@@H](CCC(=O)O)C(=O)N[C@@H](CCCNC(=N)N)C(=O)N[C@@H](CCCNC(=N)N)C(=O)N[C@@H](CCCNC(=N)N)C(=O)N[C@@H](CCCCN)C(=O)N[C@@H](CCCCN)C(=O)N[C@@H](CCCNC(=N)N)C(=O)N(C)CC(=O)O (H-AAAERRRKKR[Sar]-OH)	< 7.00
